In the test the target is Mitogen-activated protein kinase kinase kinase kinase 1 (Homo sapiens, UniProt Q92918). The experiment in a line: Biochemical Enzyme Assay. Here is the method:
HPK1 biochemical enzyme assay: HPK1 enzyme inhibition was measured using a microfluidic mobility shift assay. […] Test compounds were titrated in ten point curves (top final assay concentration 3 μM), and preincubated with enzyme/substrate mix for 30 min prior to initiation of the reaction by addition of ATP (1 mM final concentration) and substrate (1 μM final concentration; Carna Biosciences) diluted in assay buffer supplemented by MgCl2 (final assay concentration of 5 mM). Following 60 min incubation at RT, the reaction was terminated by addition of 60 μl/well termination buffer (Carna Biosciences) and signal determination using a Caliper EZ Reader (Perkin Elmer, UK).

By IC50 is commonly meant the concentration that gives 50% inhibition. A low value points to greater potency.

A value given as a limit tells only on which side of the number the result lay.

Chain of Mitogen-activated protein kinase kinase kinase kinase 1 (Q92918 whole entry): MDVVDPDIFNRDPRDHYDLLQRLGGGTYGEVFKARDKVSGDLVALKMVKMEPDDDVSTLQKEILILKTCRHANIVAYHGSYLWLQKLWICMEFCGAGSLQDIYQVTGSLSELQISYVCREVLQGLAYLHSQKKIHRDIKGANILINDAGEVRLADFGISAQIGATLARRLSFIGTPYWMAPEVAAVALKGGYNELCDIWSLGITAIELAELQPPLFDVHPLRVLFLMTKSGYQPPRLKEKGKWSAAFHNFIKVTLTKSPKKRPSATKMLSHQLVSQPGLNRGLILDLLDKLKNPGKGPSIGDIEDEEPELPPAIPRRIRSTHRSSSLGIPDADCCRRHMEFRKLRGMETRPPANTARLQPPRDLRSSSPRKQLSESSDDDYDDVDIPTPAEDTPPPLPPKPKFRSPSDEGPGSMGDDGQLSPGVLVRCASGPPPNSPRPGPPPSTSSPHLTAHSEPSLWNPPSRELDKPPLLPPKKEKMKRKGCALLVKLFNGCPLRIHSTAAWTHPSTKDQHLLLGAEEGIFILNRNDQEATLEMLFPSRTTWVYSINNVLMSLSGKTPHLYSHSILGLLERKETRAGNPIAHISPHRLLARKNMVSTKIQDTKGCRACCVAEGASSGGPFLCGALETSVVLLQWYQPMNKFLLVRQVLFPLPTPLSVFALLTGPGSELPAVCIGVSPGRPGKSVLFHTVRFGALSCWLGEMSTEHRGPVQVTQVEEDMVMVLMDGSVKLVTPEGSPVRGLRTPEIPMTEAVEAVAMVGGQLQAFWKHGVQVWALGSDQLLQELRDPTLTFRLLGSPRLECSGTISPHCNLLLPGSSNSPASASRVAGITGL

`Cc1ccn2c(-c3ccc(Nc4ccc(N5CCO[C@@H](CP)C5)cn4)c4c3CNC4=O)cnc2c1F` [US11034694, Compound I-460] had an IC50 of less than 0.1 µM. `Cn1ccc2c(-c3ncc(Nc4ccc(N5C[C@H]6COC[C@@H]5C6)cn4)c4c3CNC4=O)ccnc21` [US11034694, Compound I-309] had an IC50 of less than 0.1 µM. For `CNC1CN(c2cccc(Cc3cnc(-c4ccnc5c4ccn5C)c4c3C(=O)NC4)n2)C1` [US11034694, Compound I-449], the half-inhibitory concentration (IC50) is less than 0.1 µM.

These data come from BindingDB's records for patent US11034694 (Nimbus Saturn, 2021).
